Measurements taken from US20180369186A1, “METHOD FOR MODULATING AUTOPHAGY AND APPLICATIONS THEREOF” (JAWAHARLAL NEHRU CENTRE FOR ADVANCED SCIENTIFIC RESEARCH, priority 2015, published 2018).

Columns and labels:
[1] = system: MAP1LC3B; assay: MAP1LC3B conversion assay in HeLa cells; assay type: cell-based, human
Protocol: Total cell lysates are electrophoresed on different 1 percentages of SDS-PAGE based on the desired protein size and transferred onto PVDF membrane at constant current of 2 Ampere for 30 minutes (Transblot turbo, Bio-Rad Inc, USA). Transfer is confirmed by Ponceau S staining of blot and the blots scanned are used as loading controls. Blots are incubated overnight with 5% skim milk in primary antibody (Anti-GFP, Roche #11814460001, Anti-MAP1LC3B, CST #L7543). Secondary antibody used at 1:10.000 is goat anti-mouse (Bio-7 Rad #172-1011) or goat anti-rabbit antibody (Bio-Rad #172-1019) conjugated to HRP. Blots are developed by using ECL substrate (Thermo Scientific #34087 or Bio-Rad #170-5061) and images captured using auto capture program in Syngene G-Box, UK. image J (NIH) are used for quantitation of band intensities.
For mammalian cells, following appropriate treatments, cells are washed with ice cold PBS. Cells are then lysed in 100 μl of sample buffer (10% w/v SDS, 10 mM DTT, 20% v/v glycerol, 0.2 Tris-HCL pH 6.8, 0.05% w/v bromophenol blue) and then collected using a rubber cell scraper. The lysates are boiled at 99° C. for 15 minutes and stored at −20° C.

[2] = system: aminopeptidase; assay: Protease protection assay with aminopeptidase; assay type: cell-based, S. cerevisiae; conditions: starvation
Protocol: To elucidate the step of action of Bay11, a protease protection assay is performed using aminopeptidase as a marker, which is also a substrate for starvation-induced autophagy. Untreated cells in presence of proteinase K show both the precursor as well as the matured form due to the autophagosome-sequestered membrane-protected cargo and the cytosolic free form, respectively (FIGS. 22D and 22E). […] Combined treatment with Proteinase K and triton X-100 results in conversion of all the precursor form to the matured form in both treated and untreated groups.

[3] = system: lace plant (Aponogeton madagascariensis) cells; assay: Lace plant leaf MDC staining of punctate structures; assay type: cell-based
Protocol: Axenic lace plant cultures are grown in magenta boxes and prepared according to Gunawardena et al. Leaves in the window stage are removed from the corm and rinsed thoroughly with distilled water prior to being sectioned into 2 mm^2 pieces. For starvation treatments, window stage leaves are removed from the plant, placed in distilled water and kept in the dark overnight.
Leaf sections are stained with monodansylcadaverine (MDC; 300 μM) (Sigma, D4008) and simultaneously treated with autophagy modulators for 2 hours in the dark. (1 hour vacuum infiltration at 15 psi). Treatment times, along with stain and modulator applications are optimized using concentration gradients followed by microscopy. The optimized concentrations are 5 μM rapamycin (Enzo Life Sciences (BML A275-0005), 5 μM wortmannin (Santa Cruz Biotechnology, sc-3505), 1 μM concanamycin A (Santa Cruz Biotechnology, sc-202111), 50 μM Bay 11 (Sigma, B5556) and 50 μM ZPCK (Sigma, 860794).
Tissue sections are then rinsed and mounted in distilled water prior to being scanned using a Nikon Eclipse Ti confocal microscope (Nikon 40X/1.30, Plan Fluor, 405 nm excitation and 450/30 nm emission). Areoles in the early phases of PCD are scanned to avoid cellular debris. The mean number of puncta are quantified for each treatment group with a minimum of four independent experiments using NIS Elements Advanced Research software. Additionally, starvation treatment leaves are also exposed to 5 μM, wortmannin, 50 μM Bay11 and 50 μM ZPCK treatments and then qualitatively assessed via confocal microscopy.

[4] = system: SH-SY5Y cells (autophagosomes and autolysosomes); assay: Tandem RFP-EGFP-LC3 assay in SH-SY5Y cells; assay type: cell-based, human; conditions: 2 h
Protocol: Sub-confluent HeLa and/or SH-SY5Y cells are seeded into 60 mm cell culture dishes, then transfected with ptf LC3 construct and/or siRNA and allowed to express for 48 h. Cells are trypsinized, seeded again on poly-D-lysine coated cover slips in a 12 or 24 well plates and allowed to attach. After appropriate treatments, the coverslips containing cells are processed for imaging. For immunofluorescent antibody staining, the cover slips are incubated in primary antibody at 4° C. for overnight followed by secondary antibody incubation at room temperature.
For imaging the mammalian cells, after appropriate treatments, coverslips containing cells are fixed using 4% paraformaldehyde (PFA) (Sigma) and then permeabilized using Triton X-100 (0.2%, HiMedia). On slide, coverslips are mounted using antifade, Vectashield mounting medium (Vector laboratories). For antibody staining, coverslips are blocked using 5% BSA for 1 h at room temperature, then incubated with primary antibody at 4° C., overnight and then subsequently probed with corresponding fluorescent dye conjugated secondary antibody.

[5] = system: HeLa and SH-SY5Y cells; assay: Cell viability of HeLa and SH-SY5Y after 72 h (CellTitre Glo); assay type: cell-based, human; conditions: various concentrations
Protocol: In another embodiment of the present disclosure, FIG. 47 illustration non-toxicity of XCT 790 to cells (Hela and SHSY5Y) and scheme for α-synculein toxicity assay. Cell viability of cell lines like HeLa (a) and SH-SY5Y (b) after 72 h of XCT 790 treatments for various indicated concentrations. Cell viability was assayed using CellTitre Glo (Promega) kit.

[6] = system: LC3-II; assay: LC3 processing assay in SH-SY5Y cells; assay type: cell-based, human; conditions: 5 μM, 2 h; untreated vs treated
Protocol: The autophagy assays are performed by seeding equal numbers of sub-confluent 1-HeLa or SH-SY5Y cells in 6-well dishes and allowed to attach for 24 h, then treated with XCT 790 (5 μM) and/or 3-MA (5 mM) and/or lithium chloride (10 mM) in fed condition for 2 h. After treatments, the cell lysates are analyzed by immunoblotting.
Mammalian cell lysates preparation: After treatments, cells are collected in Laemmli buffer to perform LC3 processing assay, P70S6K, AMPK, ULK1 and 4E-BP1 immunoblotting. Samples are electrophoresed onto SDS-PAGE (8-15%) and then transferred onto PVDF (Bio-Rad) membrane through Transblot turbo (Bio-Rad). Blots are stained with Ponceau S, then probed with appropriate primary antibodies at 4° C. for overnight and subsequently HRP-conjugated secondary antibody. Signals are attained using enhanced chemiluminescence substrate (Clarity, Bio-Rad) and imaged using a gel documentation system (G Box, Syngene) and then bands are quantitated using Image software (NIH).

[7] = nutrient-rich and starvation conditions

For Cc1ccc(S(=O)(=O)/C=C/C#N)cc1 [Bay11, 3-[(4-methylphenyl)sulfonyl]-(2E)-propenenitrile], the “MAP1LC3B-II/MAP1LC3B-I and MAP1LC3B-II/TUBB ratios, prolonged treatment” value ([1]; 12 hours) was “significant reduction”, the “MAP1LC3B-II/TUBB ratio with BFA (autophagosome synthesis)” value ([1]; in the presence of BFA) was “reduces MAP1LC3B12 II/TUBB ratio” and the MAP1LC3B-II/MAP1LC3B-I ratio [1, 7] was “decreases MAP1LC3B-II/MAP1LC3B-I ratio”. The MAP1LC3B-II/TUBB ratio [1, 7] was “no significant changes”, the “form of aminopeptidase upon proteinase K treatment” value [2] was “only the mature form of aminopeptidase” and the “mean number of punctate structures per cell (MDC)” value ([3]; 2 hours, 5 μM wortmannin, 50 μM Bay11, 1 μM concanamycin A, rapamycin, 50 μM ZPCK, control 0.99±0.12) was 0.28±0.07. The “puncta in overnight starvation leaves” value ([3]; overnight starvation combined with 5 μM wortmannin, 50 μM Bay11 or 50 μM ZPCK) was “fewer puncta”.
In the case of COc1cc(C=C(C#N)C(=O)Nc2nnc(C(F)(F)F)s2)ccc1OCc1ccc(C(F)(F)F)cc1C(F)(F)F [XCT 790, 3-[4-(2,4-Bis-trifluoromethylbenzyloxy)-3-methoxyphenyl]-2-cyano-N-(5-trifluoromethyl-1,3,4-thiadiazol-2-yl)acrylamide], the “autolysosomes, fold vs control” value [4] is reported as roughly 4 fold, the “autophagosomes, fold vs control” value [4] is reported as roughly 2 fold and the toxicity to cells [5] is reported as “non-toxicity”. For the same compound, the “accumulation of LC3-II levels” value [6] was roughly 2.5 fold.
